Measurements taken from ChEMBL document CHEMBL1687830, “Evaluation of ceftazidime and NXL104 in two murine models of infection due to KPC-producing Klebsiella pneumoniae” (2011).
Converted amounts (≈) assume the structure as drawn.

How the values were obtained:
Type in all cases: functional
Klebsiella pneumoniae [1] = test: Antimicrobial activity against carbapenemases KPC-producing Klebsiella pneumoniae VA-361 infected in sc dosed CD-1 mouse in presence of 4 ug/ml NXL104 beta-lactamase inhibitor
Klebsiella pneumoniae [2] = test: Antimicrobial activity against carbapenemases KPC-producing Klebsiella pneumoniae VA-406 infected in sc dosed CD-1 mouse in presence of 2 ug/ml NXL104 beta-lactamase inhibitor
Klebsiella pneumoniae [3] = test: Antimicrobial activity against carbapenemases KPC-producing Klebsiella pneumoniae VA-406 infected in sc dosed CD-1 mouse
Klebsiella pneumoniae [4] = test: Antimicrobial activity against carbapenemases KPC-producing Klebsiella pneumoniae VA-361 infected in sc dosed CD-1 mouse in presence of 2 ug/ml NXL104 beta-lactamase inhibitor
Klebsiella pneumoniae [5] = test: Antimicrobial activity against carbapenemases KPC-producing Klebsiella pneumoniae VA-406 infected in sc dosed CD-1 mouse in presence of 4 ug/ml NXL104 beta-lactamase inhibitor
Klebsiella pneumoniae [6] = test: Antimicrobial activity against carbapenemases KPC-producing Klebsiella pneumoniae VA-361 infected in sc dosed CD-1 mouse in presence of 1 ug/ml NXL104 beta-lactamase inhibitor
Klebsiella pneumoniae [7] = test: Antimicrobial activity against carbapenemases KPC-producing Klebsiella pneumoniae VA-406 infected in sc dosed CD-1 mouse in presence of 4 ug/ml Tazobactam beta-lactamase inhibitor
Klebsiella pneumoniae [8] = test: Antimicrobial activity against carbapenemases KPC-producing Klebsiella pneumoniae VA-361 infected in sc dosed CD-1 mouse in presence of 4 ug/ml cavulanate beta-lactamase inhibitor
Klebsiella pneumoniae [9] = test: Antimicrobial activity against carbapenemases KPC-producing Klebsiella pneumoniae VA-361 infected in sc dosed CD-1 mouse
Klebsiella pneumoniae [10] = test: Antimicrobial activity against carbapenemases KPC-producing Klebsiella pneumoniae VA-406 infected in sc dosed CD-1 mouse in presence of 4 ug/ml cavulanate beta-lactamase inhibitor
Klebsiella pneumoniae [11] = test: Antimicrobial activity against carbapenemases KPC-producing Klebsiella pneumoniae VA-406 infected in sc dosed CD-1 mouse in presence of 1 ug/ml NXL104 beta-lactamase inhibitor
Klebsiella pneumoniae [12] = test: Antimicrobial activity against carbapenemases KPC-producing Klebsiella pneumoniae VA-361 infected in sc dosed CD-1 mouse in presence of 4 ug/ml Tazobactam beta-lactamase inhibitor

| Structure (SMILES) | MIC (Klebsiella pneumoniae [1]) [µg/mL] | MIC (Klebsiella pneumoniae [2]) [µg/mL] | MIC (Klebsiella pneumoniae [3]) [µg/mL] | MIC (Klebsiella pneumoniae [4]) [µg/mL] | MIC (Klebsiella pneumoniae [5]) [µg/mL] | MIC (Klebsiella pneumoniae [6]) [µg/mL] | MIC (Klebsiella pneumoniae [7]) [µg/mL] | MIC (Klebsiella pneumoniae [8]) [µg/mL] | MIC (Klebsiella pneumoniae [9]) [µg/mL] | MIC (Klebsiella pneumoniae [10]) [µg/mL] | MIC (Klebsiella pneumoniae [11]) [µg/mL] | MIC (Klebsiella pneumoniae [12]) [µg/mL] |
| --- | --- | --- | --- | --- | --- | --- | --- | --- | --- | --- | --- | --- |
| CO/N=C(\C(=O)N[C@@H]1C(=O)N2C(C(=O)[O-])=C(C[N+]3(C)CCCC3)CS[C@H]12)c1csc(N)n1 [CEFEPIME] | ≤ 0.06 | 0.5 | 256 (≈ 533 µM) | 0.25 | 0.125 | 0.5 | 128 | 8 | 32 (≈ 66.6 µM) | 128 | 0.5 | – |
| CO/N=C(\C(=O)N[C@@H]1C(=O)N2C(C(=O)O)=C(COC(C)=O)CS[C@H]12)c1csc(N)n1 [CEFOTAXIME] | 0.125 | 0.5 | ≥ 512 | 0.5 | 0.125 | 0.5 | 256 | 16 | 64 (≈ 141 µM) | 256 | 0.5 | 16 |
| C[C@@H](O)[C@H]1C(=O)N2C(C(=O)O)=C(S[C@@H]3CN[C@H](C(=O)N(C)C)C3)[C@H](C)[C@H]12 [MEROPENEM] | – | – | 256 (≈ 668 µM) | – | – | – | 128 | 2 | 4 (≈ 10.4 µM) | 128 | – | 4 |
